Laboratory results from patent US9347942B2, “Ultrasensitive cell based sensors and uses thereof” (CANVAX BIOTECH SL, priority 2010, dated 2016).

Assays:
Format in all cases: cell-based
CHRM2 [1] = target: T1, CHRM2 (Homo sapiens, UniProt P08172); assay: Number of steps needed, 384 well mix and read assay (Example 13); conditions: carbachol 10 uM, 5.000 cells, only 15 uL of medium aspirated, 30 minutes
T1 construct: the entire human GPCR; mouse immunoglobulin kappa signal peptide (N); expressed in transfected cells
T1 sequence (P08172 2-466): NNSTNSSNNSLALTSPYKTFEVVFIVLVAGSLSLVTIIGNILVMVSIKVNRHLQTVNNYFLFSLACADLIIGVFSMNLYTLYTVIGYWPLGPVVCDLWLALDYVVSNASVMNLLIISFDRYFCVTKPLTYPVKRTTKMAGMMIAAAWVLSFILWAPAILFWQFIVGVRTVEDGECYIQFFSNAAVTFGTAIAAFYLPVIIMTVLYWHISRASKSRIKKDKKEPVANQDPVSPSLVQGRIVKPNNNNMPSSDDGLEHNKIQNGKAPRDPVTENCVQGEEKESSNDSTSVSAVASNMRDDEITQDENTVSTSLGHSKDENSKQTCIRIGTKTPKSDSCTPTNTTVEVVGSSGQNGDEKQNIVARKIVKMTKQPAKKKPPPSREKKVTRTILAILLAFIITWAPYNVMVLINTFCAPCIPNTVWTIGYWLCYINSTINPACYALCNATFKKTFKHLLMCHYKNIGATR
Source text: This experiment was designed to test how many steps are needed for an assay with the cell based sensor, in particular if a washing step is needed before assay. As the RBL-2H3 is an adherent cell line at least one step of aspiration of cell culture medium is needed. If all cell culture medium is aspirated then cells should become dry and eventually die in particular if there is a time interval between aspiration and addition of compounds to test for exocytosis. For this reason an additional treatment was included were not all cell culture medium is aspirated. But if not all the cell culture medium is aspirated then some of the reporter secreted by cells after overnight culture contributes to basal exocytosis. CHRM2 and granzyme B expressing cells from example #12 were used in this experiment but cells were seeded 16 hours before experiment at 5.000 cells per well of a 384 well plate with black walls in 20 uL of culture medium. Before experiment three treatments were made: (1) discarding all the 20 uL of medium without washing; (2) discarding only 15 uL of cell culture medium and (3) discarding only 15 uL of cell culture medium and washing of the cells using 75 uL of Hanks Balanced Salt Solution (HBSS) containing 0.1% BSA and aspiration of 75 uL of washing buffer. […] Plates were incubated at 37° C. in the fluorescence reader and read at 0, 15, 30, 45 and 60 minutes. […]

CHRM2 [2] = target: T1, CHRM2; assay: Multiplex assay, Sensor B channel (CHRM2 and granzyme B) (Example 14); conditions: granzyme B substrate 1 uM
Source text: The principle of multiplex reactions is illustrated in FIG. 5. RBL2H3 cells were stably transfected with a pair of a GPCR as exocytosis modulator and a granzyme as a granule stored reporter as described in example 9. Combinations included were: hIL8 receptor (hIL8RA) and human granzyme A (Sensor A) and CHRM2 and granzyme B expressing cells of example #12 (Sensor B). Human IL8 was used as agonist of hll_8R while carbachol was used as CHRM2 agonist. […] As both substrates uses the same pair of fluorophore (FAM) and quencher (TAMRA) only one substrate could be added to reaction vessel for specific detection at 535 nm after excitation at 485 nm. […] Sensors, agonists and substrates were mixed in a total volume of 20 uL of HBSS in a black walled 384 well microplate and the microplate was incubated at 37 Celsius degrees in a BMG-Labtech microplate fluorimeter and read at 0, 15, 30, 45 and 60 minutes.

CHRM2 [3] = target: T1, CHRM2; assay: Exocytosis time optimisation, granzyme B FRET readout (Example 12); conditions: agonist 10 uM
Source text: An experiment was designed to optimize assay conditions such as: exocytosis time, number of steps needed for assay and uses of cells in suspension. Cells developed in example #9 expressing both a GPCR and human granzyme B were used in this example for optimization of exocytosis time. GPCRs included were CHRM2 (an alpha-i coupled GPCR) and bradykinin type B1 receptor (an alpha-q coupled GPCR). Carbachol and kallinin from Sigma-Aldrich (USA) were used as ligands for CHRM2 and bradykinin type B1 receptor, respectively and used at 10 uM final concentration in HBSS buffer. Cells were seeded the night before experiment at 20.000 cells per well of a 96-well microplate in 100 uL of complete cell culture medium. Next day cells were washed with HBSS buffer and incubated with the ligand (agonist) at 10 uM of each GPCR in 30 uL of HBSS buffer at 37 Celsius degrees for 5, 15, 30 or 60 minutes and after centrifugation at 400 g for 5 minutes supernatants were analysed for human granzyme B activity using FAM-[…]-TAMRA at 1 uM final concentration as the human granzyme B substrate. Released FAM was measured by excitation at 485 nm and emission at 535 nm in a BMG Labtech microplate fluorimeter in 96 well microplates. Microplates were incubated at 37 Celsius degrees on the reader and were kinetically read at 0, 15, 30, 45 and 60 minutes. Control wells with substrate only in HBSS buffer were included to subtract autofluorescence of substrates to both cells treated with ligands and to cells treated with HBSS buffer only. […] The signal to background is lower at longer exocytosis times due to the higher increase in basal release than the increase in specific signal after the first 5 to 15 minutes. Thus, any exocytosis time from probably less than 5 minutes to at least 60 minutes may be used for the methods of the present invention but longer exocytosis times produce a sensor with a lower signal to background, exocytosis is nearly complete at 5 minutes and signal to background is good for a robust sensor.

C[N+](C)(C)CCOC(N)=O [Carbachol, carbachol]
signal to background (CHRM2 [1]): 8-10 | Signal to background at 30 min (CHRM2 [2]; Condition 7: 5000 cells Sensor B, carbachol 10 uM): 20 | Signal to background at 30 min (CHRM2 [2]; Condition 10: Sensor A 12500 + Sensor B 5000 cells, IL8 10 uM + carbachol 10 uM): 20 | exocytosis, % of maximal (CHRM2 [3]; 5 minutes, 20.000 cells): > 90% | signal to background (S/B) (CHRM2 [3]; medium taken at 5 to 15 minutes): 20-22 | signal to background (S/B) (CHRM2 [3]; medium taken at 30 minutes): 15-17 | signal to background (S/B) (CHRM2 [3]; medium taken at 60 minutes): 8-10
